Experimental data as given in patent US9458154B2, “Kinase inhibitors” (Chiesi Farmaceutici S.p.A., priority 2011, dated 2016).
Counter-ions that a name gives are not always drawn.

Biological target: T1, p38alpha (Homo sapiens, UniProt Q16539)
T1 construct: purchased Invitrogen PV3304
Test: P38alpha Enzyme Inhibition Assay (Alphascreen kinase activity assay)
Assay type: biochemical
Details: 100 pM p38alpha, ATF-2 fusion protein substrate, 250 μM ATP, 2 hours preincubation at 25° C.; read-out: p38α inhibition
Method: P38alpha Enzyme Inhibition Assay
The inhibitory activity of compounds was determined using an Alphascreen® (Perkin Elmer) based kinase activity assay. Kinase reactions consisted of 25 mM HEPES pH 7.5, 10 mM MgCl2, 100 μM Na3VO4, 2 mM DTT, 0.05 mg/ml Tween 20, 100 pM p38alpha (Invitrogen, PV3304), 1% DMSO and 0.3 μg/ml ATF-2 fusion protein (New England Biolabs, 9224). Compounds were incubated under these conditions for 2 hours, at 25° C., prior to the initiation of the kinase activity by the addition of the 250 μM ATP. Reaction volumes were 20 uL. After 1 hr at 25° C. reactions were stopped by the adding 10 uL of 25 mM HEPES pH 7.5 containing 62.5 mM EDTA, 0.05% Triton X-100, 10% BSA and 0.83 ng/uL anti-phospho-ATF2 antibody (Abcam, ab28812). Detection was performed by measuring luminescence following the addition of Alphascreen Donor beads (Perkin Elmer 6765300) and Protein A Alphascreen Acceptor beads (Perkin Elmer 6760137), both at a final concentration of 20 ug/ml. IC50 values were determined from concentration-response curves.

T1 sequence (Q16539 whole entry): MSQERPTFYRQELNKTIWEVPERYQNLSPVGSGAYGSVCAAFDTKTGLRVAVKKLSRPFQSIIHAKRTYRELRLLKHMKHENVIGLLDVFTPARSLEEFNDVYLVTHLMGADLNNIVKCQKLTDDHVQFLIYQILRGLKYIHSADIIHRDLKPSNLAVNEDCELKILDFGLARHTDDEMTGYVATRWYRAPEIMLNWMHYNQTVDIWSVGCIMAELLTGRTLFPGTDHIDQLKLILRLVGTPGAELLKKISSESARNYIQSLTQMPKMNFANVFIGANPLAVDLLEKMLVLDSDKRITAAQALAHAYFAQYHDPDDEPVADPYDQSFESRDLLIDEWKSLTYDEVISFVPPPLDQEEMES

| SMILES | IC50 [nM] |
| --- | --- |
| Cc1ccc(-n2nc(C(C)(C)C)cc2NC(=O)N[C@H]2CC[C@@H](Oc3ccc4nnc(-c5ccccn5)n4c3)c3ccccc32)cc1 [Example 22, 1-(5-tert-Butyl-2-p-tolyl-2H-pyrazol-3-yl)-3-[(1S,4R)-4-(3-pyridin-2-yl-[1,2,4]triazolo[4,3-a]pyridin-6-yloxy)-1,2,3,4-tetrahydro-naphthalen-1-yl}-urea] | < 10 |
| Cc1ccc(-n2nc(C(C)(C)C)cc2NC(=O)N[C@H]2CC[C@@H](Oc3ccc4nnc(-c5cccc(OCCN6CCOCC6)c5)n4c3)c3ccccc32)cc1 [Example 4, 1-(5-tert-Butyl-2-p-tolyl-2H-pyrazol-3-yl)-3-[(1S,4R)-4-{3-[3-(2-morpholin-4-yl-ethoxy)-phenyl]-[1,2,4]triazolo[4,3-a]pyridin-6-yloxy}-1,2,3,4-tetrahydro-naphthalen-1-yl)-urea] | < 10 |
| COCC(=O)Nc1cc(CO[C@@H]2CC[C@H](NC(=O)Nc3cc(C(C)(C)C)nn3-c3ccc(C)cc3)c3ccccc32)ccn1 [Example 9, N-(4-{(1R,4S)-4-[3-(5-tert-Butyl-2-p-tolyl-2H-pyrazol-3-yl)-ureido]-1,2,3,4-tetrahydro-naphthalen-1-yloxymethyl}-pyridin-2-yl)-2-methoxy-acetamide] | < 10 |

The remaining lines, values ahead:

| IC50 [nM] | SMILES |
| --- | --- |
| < 10 | CC(C)c1nnc2ccc(O[C@@H]3CC[C@H](NC(=O)Nc4cc(C(C)(C)C)on4)c4ccccc43)cn12 [Example 17, 1-(5-tert-Butyl-isoxazol-3-yl)-3-[(1S,4R)-4-(3-isopropyl-[1,2,4]triazolo[4,3-a]pyridin-6-yloxy)-1,2,3,4-tetrahydro-naphthalen-1-yl]-urea] |
| < 10 | CC(C)c1nnc2ccc(O[C@@H]3CC[C@H](NC(=O)Nc4cc(C(C)(C)C)nn4-c4cccc(OCCN5CCOCC5)c4)c4ccccc43)cn12 [Example 6, 1-{5-tert-Butyl-2-[3-(2-morpholin-4-yl-ethoxy)-phenyl]-2H-pyrazol-3-yl}-3-[(1S,4R)-4-(3-isopropyl-[1,2,4]triazolo[4,3-a]pyridin-6-yloxy)-1,2,3,4-tetrahydro-naphthalen-1-yl]-urea] |
| < 10 | CC(C)c1nnc2ccc(O[C@@H]3CC[C@H](NC(=O)Nc4cc(C(C)(C)C)nn4-c4cccc(CN5CCOCC5)c4)c4ccccc43)cn12 [Example 19, 1-[5-tert-Butyl-2-(3-morpholin-4-ylmethyl-phenyl)-2H-pyrazol-3-yl]-3-[(1S,4R)-4-(3-isopropyl-[1,2,4]triazolo[4,3-a]pyridin-6-yloxy)-1,2,3,4-tetrahydro-naphthalen-1-yl]-urea, formic acid salt] |
